# Target: T1, JNK1 (Homo sapiens, UniProt P45983)
# T1 construct: purchased Carna Biosciences
# Assay: JNK1 biochemical assays (one or more of: time resolved fluorescence, Z'-LYTE Cascade, radioactive)
# Conditions: Table 2; JNK1 IC50 activity level; read-out: Act. Level
# T1 sequence (P45983 whole entry): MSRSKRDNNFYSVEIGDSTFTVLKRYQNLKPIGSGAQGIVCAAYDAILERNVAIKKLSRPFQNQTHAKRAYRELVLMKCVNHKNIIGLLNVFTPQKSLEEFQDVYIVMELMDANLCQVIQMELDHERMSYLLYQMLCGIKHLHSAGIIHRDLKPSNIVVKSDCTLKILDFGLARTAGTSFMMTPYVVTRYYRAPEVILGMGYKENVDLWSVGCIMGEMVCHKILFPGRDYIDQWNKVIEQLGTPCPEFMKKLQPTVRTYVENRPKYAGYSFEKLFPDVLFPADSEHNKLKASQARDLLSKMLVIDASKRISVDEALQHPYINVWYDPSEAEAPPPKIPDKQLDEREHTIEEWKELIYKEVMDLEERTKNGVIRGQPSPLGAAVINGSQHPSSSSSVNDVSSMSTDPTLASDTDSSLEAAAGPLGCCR
row,IC50,Compound
1,< 200 nM,"NC(=O)c1cnc(N[C@@H]2CCOc3ccccc32)nc1N[C@@H]1CCC[C@H](O)C1 [Example B-79, 2-((R)-chroman-4-ylamino)-4-((1R,3S)-3-hydroxycyclohexylamino)pyrimidine-5-carboxamide]"
2,1000 to 10000 nM,"COc1ccc(-c2ccccc2)cc1Nc1ncc(C(N)=O)c(Nc2ccccc2)n1 [Example B-29, 2-(4-methoxybiphenyl-3-ylamino)-4-(phenylamino)pyrimidine-5-carboxamide]"
3,200 to 800 nM,"COc1ccc(CNc2ncc(C(N)=O)c(Nc3ccccc3)n2)cc1OC [Example B-43, 2-(3,4-dimethoxybenzylamino)-4-(phenylamino)pyrimidine-5-carboxamide]"
4,200 to 800 nM,"COc1ccccc1CNc1ncc(C(N)=O)c(Nc2ccccc2)n1 [Example B-60, 2-(2-methoxybenzylamino)-4-(phenylamino)pyrimidine-5-carboxamide]"

# Same assay, conditions: Table 3; JNK1 IC50 activity level; read-out: Act. Level
row,IC50,Compound
1,200 to 800 nM,"CCO[C@H]1CC[C@H](Nc2ncc(C#N)c(N[C@@H]3CCCOC3)n2)CC1 [Example C-26, 2-((1r,4R)-4-ethoxycyclohexylamino)-4-((R)-tetrahydro-2H-pyran-3-ylamino)pyrimidine-5-carbonitrile]"

# Same assay, conditions: one or more of the JNK1 biochemical assays; read-out: Act. Level (JNK1 IC50 activity level)
row,IC50,Compound
1,< 200 nM,"CCC(C)(CC)Nc1ncc(C(N)=O)c(N[C@@H]2CC[C@@H](C)[C@H](O)C2)n1 [Example 345, 4-((1R,3R,4R)-3-hydroxy-4-methylcyclohexylamino)-2-(3-methylpentan-3-ylamino)pyrimidine-5-carboxamide]"
2,< 200 nM,"CC(C)(Nc1nc(N[C@H]2CC[C@H](OCC(F)(F)F)CC2)ncc1C(N)=O)C1CC1 [Example 482, 4-(2-cyclopropylpropan-2-ylamino)-2-((1r,4r)-4-(2,2,2-trifluoroethoxy)cyclohexylamino)pyrimidine-5-carboxamide]"
3,< 200 nM,"CC1(Nc2nc(N[C@H]3CC[C@H](O)CC3)ncc2C(N)=O)CCCC1 [Example 322, 2-((1r,4r)-4-hydroxycyclohexylamino)-4-(1-methylcyclopentylamino)pyrimidine-5-carboxamide]"
4,< 200 nM,"CC(C)(C)Nc1nc(N[C@@H]2CCC[C@](C)(O)C2)ncc1C(N)=O [Example 380, 4-(tert-butylamino)-2-((1R,3S)-3-hydroxy-3-methylcyclohexylamino)pyrimidine-5-carboxamide]"

# Same assay, conditions: tested in one or more of the JNK1 biochemical assays; read-out: Act. Level (JNK1 biochemical assay IC50 activity level)
row,IC50,Compound
1,< 200 nM,"CC(C)CC(=O)N1CCC(Nc2ncc(C(N)=O)c(N[C@H]3C[C@@H](O)C3)n2)CC1 [Example A-68, 4-((1s,3s)-3-hydroxycyclobutylamino)-2-(1-(3-methylbutanoyl)piperidin-4-ylamino)pyrimidine-5-carboxamide]"
2,< 200 nM,"CO[C@H]1CC[C@H](Nc2ncc(C(N)=O)c(NC(C)(C)CCO)n2)CC1 [Example A-35, 4-(4-hydroxy-2-methylbutan-2-ylamino)-2-((1r,4r)-4-methoxycyclohexylamino)pyrimidine-5-carboxamide]"
3,< 200 nM,"CO[C@H]1CC[C@H](Nc2ncc(C(N)=O)c(N[C@@H]3CCCC[C@](C)(O)C3)n2)CC1 [Example A-183, 4-((1R,3S)-3-hydroxy-3-methylcycloheptylamino)-2-((1r,4R)-4-methoxycyclohexylamino)pyrimidine-5-carboxamide]"
4,< 200 nM,"CO[C@H]1CC[C@@H](Nc2nc(N[C@H]3CC[C@H](O)C3)ncc2C(N)=O)CC1 [Example A-81, 2-((1S,3S)-3-hydroxycyclopentylamino)-4-((1s,4R)-4-methoxycyclohexylamino)pyrimidine-5-carboxamide]"
5,< 200 nM,"CO[C@H]1CC[C@H](Nc2ncc(C(N)=O)c(N[C@H]3CC[C@@H](CO)CC3)n2)CC1 [Example A-119, 4-((1s,4s)-4-(hydroxymethyl)cyclohexylamino)-2-((1r,4r)-4-methoxycyclohexylamino)pyrimidine-5-carboxamide]"
6,< 200 nM,"CO[C@H]1CCC[C@H](Nc2ncc(C(N)=O)c(N[C@@H]3CCC[C@H](O)C3)n2)CC1 [Example A-200, 4-((1R,3S)-3-hydroxycyclohexylamino)-2-((1S,4S)-4-methoxycycloheptylamino)pyrimidine-5-carboxamide]"
